From patent publication US4624956A, “Ulcer and gastric secretion inhibiting 4,5,6,7-tetrahydrothiazole[5,4-c]pyridine derivatives” (priority 1983, dated 1986)
Structures can show the parent of a compound that is named as a salt.

What was measured:
[1] = tested on: oxotremorine syndrome in the mouse; conditions: for Anticholinergic activ. (antagonism against oxotremorine syndrome): in vivo, po, 100 mg/kg
Procedure: (§1) Considering that some anti-ulcer agents display, as does atropine, a remarkable but undesired anticholinergic activity, the compound of the present invention was also assessed for its antagonism against the syndrome induced by intraperitoneally (i.p.) administered oxotremorine in mice, according to the method described by G. P. Leszkovsky and L. Tardos (Europ. J. Pharmac. 1971, 15, 310). Given test compound embodiments were administered to groups of 5 male mice, 20-25 g body weight, at the screening dose of 100 mg/kg per os. The degree of peripheral cholinergic activation induced by oxotremorine was measured b salivation and lachrymation, and the degree of central cholinergic activation by the severity of tremors and hypothermia. […] The approximate acute toxicity (LD50) of the compounds of the invention was determined in the mouse and in the rat by single oral administration of increasing doses and measured on the seventh day after treatment. […] Ranitidine, the well known anti-ulcer agent, was used as comparison compound.

[2] = tested on: ASA induced gastric ulcers in rats; assay: inhibition of acetyl salicyclic acid (ASA) induced gastric ulcers in rats; format: in vivo, rat (male Sprague Dawley); conditions: po, 4 h, rat, p.o. 60 min before ASA 100 mg/kg, dose reducing ulcer index by 50%
Procedure: The anti-ulcerogenic activity of the present compound is shown, for example, by the fact that embodiments of the present compound are active in the test of inhibition of acetyl salicyclic acid (ASA) induced gastric ulcers in rats as described by M. Hemmati et al in Pharmacology, 9, 374, 1973. Male Sprague Dawley rats [Crl: CD (SD) BR] (Charles River Italy) weighing 190±10 g, which had fasted for 15 hours, but given free access to water, were administered ASA (100 mg/kg per os in 0.2 ml/100 g b.w.) 60 minutes after the oral treatment with the tested compounds. Gastric ulcerations were evaluated 4 hours after ASA treatment. The inhibition of gastric ulcerations, evaluated as percentage inhibition of ulcer index (sum of ulcer length in millimeters), was expressed as ED50 (dose which reduces gastric ulcerations by 50% in comparison with control rats).

[3] = tested on: gastric ulcers induced in rats by stress; assay: inhibition of stress ulcers in rats (restraint in water at 23° C. for 4 hours); format: in vivo, rat (Charles River male); conditions: po, rat, p.o. one hour before stress, number of ulcers
Procedure: The anti-ulcerogenic activity of the compound of the present invention is shown also by the fact that embodiments of the same are active in the test of inhibition of stress ulcers in rats (restraint in water at 23° C. for 4 hours), according to the method of M. Usardi et al. (Prostaglandins, 8, 43, 1974). The tested compounds were administered per os one hour before the stress. Six Charles River male rats (140±10 g body weight), which had fasted for 16 hours, were used for each experimental group. At the end of the stress, the rats were killed and the gastric ulcers evaluated by counting them. The inhibition of gastric ulcerations, evaluated as percentage inhibition of ulcer index (number of ulcers), was expressed as ED50.

[4] = tested on: basal gastric secretion output HCl; assay: gastric anti-secretory activity in rats, pylorus ligature technique; format: in vivo, rat (Sprague-Dawley male); conditions: Column 4, rat, intraduodenal (i.d.), 4 hours, read-out: Antisecretory activ.: inhibition of basal gastric secretion output HCl (ED50)
Procedure: The gastric anti-secretory activity of the compound of the present invention was evaluated in rats by the pylorus ligature technique (H. Shay et al, Gastroenterology 5, 43 1945). Six Sprague-Dawley male rats (110-130 g body weight) for each group were used. Twenty-four hours before the test, the rats were deprived of food while water was maintained. On the day of operation, the pylorus was ligated under light ether anaesthesia. Four hours after the ligature the rats were sacrificed, the stomach secretion collected, centrifuged at 3500 r.p.m. for 10 minutes and the volume, less sediment, was determined. The amount of free hydrochloric acid in the gastric juice was determined by titration against 0.1N sodium hydroxide to an end point of pH 7. All the compounds were injected intraduodenally at the time of ligature. The results, expressed as ED50 mg/kg (the dose which reduced the output of hydrochloride acid by 50% in comparison with control rats) are reported in column 4 of Table 1.

[5] = approximate acute toxicity (LD50) in the mouse, single oral administration; conditions: in vivo
Procedure: as §1

histamine H2-receptor = biological target: T1, histamine H2-receptor (Cavia porcellus, UniProt P47747); assay: histamine H2-receptor antagonist activity in vitro on the guinea pig right atrium; conditions: Column 5; guinea pig atria in vitro; screening dose 1 × 10^-5 M; 'More active' continues 'than Ranitid.'; active if it shifts histamine curve right at ≤1×10^-5 M
T1 construct: histamine-induced rate increase
Procedure: The compound of the present invention was assayed for histamine H2 -receptor antagonist activity in vitro on the guinea pig right atrium. Male guinea pigs were killed by a blow on the head and the heart was quickly excised and placed in oxygenated Ringer Lock solution of the following composition (g/l): NaCl 9, KCl 0.42, CaCl2 0.24, NaHCO3 0.5, Glucose 1. Atria were dissected away from the rest of the heart, freed from connective tissue, suspended in a 20 ml organ bath containing Ringer Locke solution thermoregulated at 37° C., and carboxygenated with 95% O2 and 5% CO2. Atria spontaneously beating were allowed to adjust to the bath conditions for at least 30 minutes prior to the experiment. Histamine was added to the bath in cumulative fashion starting from 3×10^-7 M to 1×10^-4 M. The histamine-induced increase in atrial rate was allowed to plateau before the next successive concentration was added. After washing and waiting for the recovery of atria rate, a compound was added 5 minutes before repeating the cumulative dose response curve with histamine. A compound is considered an H2 -receptor antagonist if it is able to shift the dose response curve of histamine to the right at a concentration ≤1×10^-5 M. The results are reported in column 5 of Table 1.

[6] = tested on: duodenal ulcers induced in rats by cysteamine; assay: inhibition of duodenal ulcers induced in rats by cysteamine; format: in vivo; conditions: po, rat
Procedure: The inhibition of duodenal ulcers, induced in rats by cysteamine, was evaluated for the tested compounds as percentage inhibition of ulcer index [sum of the lesioned areas per rat (mm^2)] according to the method of Fujii Y. et al, Jap. J. Pharm. 25, 663, 1975, and expressed as ED50.

[7] = approximate acute toxicity (LD50) in the rat, single oral administration; conditions: in vivo
Procedure: as §1

T1 sequence (P47747 whole entry): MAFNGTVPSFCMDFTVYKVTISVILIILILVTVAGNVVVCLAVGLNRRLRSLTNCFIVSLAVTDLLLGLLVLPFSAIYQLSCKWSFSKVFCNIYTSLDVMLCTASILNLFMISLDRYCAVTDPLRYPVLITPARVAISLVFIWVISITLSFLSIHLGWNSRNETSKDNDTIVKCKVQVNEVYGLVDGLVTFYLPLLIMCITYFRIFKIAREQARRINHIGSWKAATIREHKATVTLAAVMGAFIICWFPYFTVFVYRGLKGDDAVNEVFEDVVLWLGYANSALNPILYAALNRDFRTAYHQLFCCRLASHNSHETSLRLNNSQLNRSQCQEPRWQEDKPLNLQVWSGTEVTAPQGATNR

CN1[C@@H]2CC[C@H]1C[C@@H](OC(=O)C(CO)c1ccccc1)C2 (stereo partly shown) [Atropine sulfate, reference compound]
peripheral and central effects induced by oxotremorine ([1]; oxotremorine i.p., dose of atropine sulfate not given): suppressed both peripheral and central effects

CC(C)NC(=S)N1CCc2nc(N)sc2C1 [Example 2, 2-Amino-5-(isopropyl-thiocarbamoyl)-4,5,6,7-tetrahydrothiazolo[5,4-c]pyridine]
ED50 [2]: ~5 mg/kg | ED50 [3]: 2.7 mg/kg | ED50 [4]: 1 mg/kg | Anticholinergic activ. (antagonism against oxotremorine syndrome) [1]: Inactive | LD50 at 168 h [5]: 400 to 800 mg/kg

CNC(=O)N1CCc2nc(N)sc2C1 [Example 5, 2-Amino-5-(methyl-carbamoyl)-4,5,6,7-tetrahydrothiazolo[5,4-c]pyridine]
ED50 [2]: 1.2 mg/kg | ED50 [3]: > 25 mg/kg | ED50 [4]: > 5 mg/kg | Anticholinergic activ. (antagonism against oxotremorine syndrome) [1]: Inactive | LD50 at 168 h [5]: 200 to 400 mg/kg

CC(C)NC(=S)N1CCc2nc(NC(=N)N)sc2C1 [Example 15, 2-Guanidino-5-(isopropyl-thiocarbamoyl)-4,5,6,7-tetrahydrothiazolo[5,4-c]pyridine]
ED50 [2]: 0.5 mg/kg | ED50 [3]: < 50 mg/kg | ED50 [4]: < 5 mg/kg | Anti-H2 activ. (histamine H2-receptor): Active | Anticholinergic activ. (antagonism against oxotremorine syndrome) [1]: Inactive | LD50 at 168 h [5]: 400 to 800 mg/kg

CC(C)NC(=O)N1CCc2nc(NC(=N)N)sc2C1 [Example 16, 2-Guanidino-5-(isopropyl-carbamoyl)-4,5,6,7-tetrahydrothiazolo[5,4-c]pyridine]
ED50 [2]: 0.017 mg/kg | ED50 [3]: 2.9 mg/kg | ED50 [6]: 0.4 mg/kg | ED50 [4]: 0.33 mg/kg | Anti-H2 activ. (histamine H2-receptor): More active | Anticholinergic activ. (antagonism against oxotremorine syndrome) [1]: Inactive | LD50 at 168 h [5]: 200 to 400 mg/kg | LD50 at 168 h [7]: > 800 mg/kg

N=C(N)Nc1nc2c(s1)CN(C(=O)NC1CC1)CC2 [Example 22, 2-Guanidino-5-(cyclopropyl-carbamoyl)-4,5,6,7-tetrahydrothiazolo[5,4,-c]pyridine]
ED50 [2]: 0.08 mg/kg | ED50 [3]: 20.2 mg/kg | ED50 [6]: 0.3 mg/kg | ED50 [4]: 1.7 mg/kg | Anti-H2 activ. (histamine H2-receptor): More active | Anticholinergic activ. (antagonism against oxotremorine syndrome) [1]: Inactive | LD50 at 168 h [5]: > 800 mg/kg | LD50 at 168 h [7]: > 800 mg/kg

CNC(=C[N+](=O)[O-])NCCSCc1ccc(CN(C)C)o1 [Ranitidine, reference compound]
ED50 [2]: 0.5 mg/kg | ED50 [3]: 6.2 mg/kg | ED50 [6]: 10.7 mg/kg | ED50 [4]: 7 mg/kg | Anticholinergic activ. (antagonism against oxotremorine syndrome) [1]: Inactive | LD50 at 168 h [5]: > 800 mg/kg | LD50 at 168 h [7]: > 800 mg/kg
